US8080582B2, “Derivatives of 8-epiblechnic acid and their effects on down-regulation of endothelin (ETA) receptor mRNA” (ScinoPharm Taiwan Ltd., priority 2008, dated 2011)
Entries after “also recorded” stand apart in the source; their conditions may differ. Like-named read-outs stand apart in the source and are kept apart here.

Legend:
Assay type in all cases: cell-based
[1] = test system: prostate cancer cells (PC-3); test: MTT cell viability, prostate cancer cells; conditions: for Cell viability at higher concentrations: PC-3, 0.3 mM (or higher), 48 hrs, MTT
Description: (§1) The cells (1×10^5 cells/well in 24-well plates) were cultured for 24 hrs. Different concentrations of Sal-B and its analogs (0, 50, 100, 150, 200, 250 μg/ml) were added to treat the cells. After treating for 48 hrs, 100 μl MTT solution was added to each well, and the plate was placed in an incubator for 1-4 hrs. After adding 400 μl DMSO to treat the cells for 30 min., 200 μl samples were collected and placed in a 96-well plate to conduct the absorption measurement at 550 nm.
(§2) Cancer cells were treated with Sal-B and EBA at concentrations of 0, 0.1, 0.2, 0.3, 0.4, 0.5 mM. After treating for 48 hrs, MTT was added, and then allowed to react for 3 hrs at 37° C. After that, DMSO was added and allowed to react for 30 min., the OD570 absorption values were measured. Cell viability was above 80% when nasopharyngeal cancer cells (Hone-1) were treated with […] Sal-B and EBA. […] But the cell viability remained above 70% for treating with 0.1 mM and 0.2 mM EBA. Similar results were obtained when prostate cancer cells (PC-3) were treated with the drugs: Cell viability was above 80% for treating PC-3 cells with 0.2 mM Sal-B or EBA.
MTT testing was employed to observe the viability of cancer cells after treating with Sal-B and the six synthetic analogs.

[2] = test system: breast cancer cells (MCF-7); test: MTT cell viability, breast cancer cells; conditions: MCF-7, different concentrations (0-0.5 mM), 48 hrs
Description: as §1, §2

[3] = test system: normal mammary gland cell line (A1N4); test: Cytotoxicity test on normal mammary gland cells
Description: as §1

ETAR mRNA expression = test: Real-time quantitative RT-PCR of ETAR mRNA in smooth muscle cells (A10); conditions: vascular smooth muscle cells, 100 μg/ml, 48 hrs
Description: Extraction of cellular RNA: Subculturing smooth muscle cells to 100-mm culture dishes. After the cells had filled the culture dishes, Sal-B and its analogs were added to treat the cells for 48 hrs. After that, 1×PBS solutions were added to wash the cells three times. After adding 1 ml TRIzol, the cells were scraped off and placed in 1.5 ml micro-centrifuge tubes. Following the addition of 0.2 ml chloroform to each tube, the tubes were shaken, left at room temperature for 3 min., and run in a centrifuge at 12,000 rpm for 15 min. The supernatant liquid was removed and the cells placed in new micro-centrifuge tubes. After adding an amount of isopropyl alcohol equivalent to one-half of the volume of the supernatant liquid, and mixing until homogeneous, the samples were allowed to stand at room temperature for 10 min. The supernatant liquid was removed after centrifugation at 12,000 rpm for 10 min. 1 ml 70% alcohol was added to wash out salts, followed by centrifugation for 5 min. and removal of supernatant liquid. The samples were dissolved in 50 μl DEPC-H2O after drying.
(1) cDNA synthesis: 1 μl Random hexamer primer (20 μM) and 1 μl dNTP(10 mm) were added to 3 μg RNA, which was allowed to react at 65° C. for 5 min., and then placed on ice promptly. After the addition of 2 μl 10× reaction buffer, 0.5 μl RNaseOUT (40 unit/μl) and 1 μl SuperScript III RT (200 unit/μl), the solution was mixed until homogeneous, and allowed to react at 50° C. for 50 min. After that, the mixture was heated to 85° C. for 5 min. to terminate the enzymatic reaction. The samples were preserved at −70° C. for later use.
(2) PCR quantitative analysis: After adding 7.5 μl PCR primer mix (400 nm each) and 15 μl SYBR Green dye reagent to the 7.5 μl cDNA template, the solution was placed in Bio-Rad's iCycler for PCR reaction. The resulting data was inputted into Gene Expression Analysis for iCycler iQ Real-Time PCR Detection System for quantitative analysis of gene expression.
Furthermore, after treating vascular smooth muscle cells with 100 μg/ml of either Sal-B or EBA for 48 hrs, the identical concentrations of cellular whole RNA were sampled for the synthesis of cDNA by using reverse transcriptase. The PCR method was employed to determine the amounts of endothelin receptor mRNA expression. […] For the analysis of ETAR mRNA expression by using the real-time PCR method, vascular smooth muscle cells at full confluence 100-mm culture dishes were treated with 100 μg/ml of either Sal-B or EBA for 48 hrs. The identical concentrations of cellular whole RNA were sampled for the synthesis of cDNA by using reverse transcriptase. The real-time PCR method was used to compare the amounts of ETAR mRNA expression.
The different analogs, compounds A to F, had different effects on ETAR mRNA expression. The control group represented treating smooth muscle cells (A10) with DMSO, and the positive control group represented treating the cells with Sal-B. The smooth muscle cells were treated with 0.2 mM Sal-B and compounds A to F for 48 hrs. The identical concentrations of cellular RNA were sampled for the synthesis of cDNA by using reverse transcriptase. The real-time PCR method was employed to determine the amounts of ETAR mRNA expression. Compared with the control group, compound B had the least effect on down-regulating ETAR mRNA expression, as approximately 50% of the ETAR mRNA remained after the treatment. […]

PC-3 cancer cells = test: Flow cytometry cell cycle analysis (sub-G1, apoptosis) of PC-3 cells; conditions: PC-3, 0.4 mM, 48 hrs, PI flow cytometry; control around 1.18%
Description: After suspending cells, the precooled 70% ethanol was used for fixing the cells. After centrifuging the mixture for 10 min. at 3,000 rpm, supernatant liquid was removed. Propidium iodide (PI) buffer (0.1% Triton X-100, 0.2 μg/ml RNase A, 40 μg/ml PI) was added, and then the solution was kept still at 37° C. for 30 min. After that, the cell cycle analysis was conducted by flow cytometry.
Flow cytometry was used to determine whether Sal-B and its analogs induced apoptosis in cancer cells. After treating PC-3 cancer cells with 0.4 mM Sal-B and EBA, and 0.01 mM compounds B and A for 48 hrs, the cells were collected and allowed to react with PI buffer for 30 min. Flow cytometry was then employed to measure the cell cycle. Approximately 5.16% of PC-3 cancer cells were at sub-G1 phase after treating with Sal-B, roughly 5.27% were at sub-G1 phase after treating with compound B, and roughly 8.54% were at sub-G1 phase after treating with compound A. However, for the control, only around 1.18% of the cells were at sub-G1 phase. Therefore, Sal-B and its analogs (compounds B and A) thus caused a significant increase in the percentage of cells at sub-G1 phase.

| Molecule | Cell viability at higher concentrations [1] | Viability of PC-3 cells as the concentration is increased ([1]; PC-3, MTT, increasing concentration, FIG. 1) | Effect on cancer cell viability [2] | Cytotoxicity to normal cells ([3]; A1N4 normal mammary gland cells, FIG. 2) | ETAR mRNA expression, % of that in the control (ETAR mRNA expression) | PC-3 cancer cells at sub-G1 phase (PC-3 cancer cells) | Cytotoxicity to normal cells [3] |
| --- | --- | --- | --- | --- | --- | --- | --- |
| O=C(/C=C/c1ccc(O)c2c1[C@H](C(=O)O[C@H](Cc1ccc(O)c(O)c1)C(=O)[O-])[C@@H](c1ccc(O)c(O)c1)O2)O[C@H](Cc1ccc(O)c(O)c1)C(=O)[O-].[Mg+2] [Sal-B, magnesium lithospermate B] | the cell viability was reduced | reduced as the concentration of Sal-B was increased | no significant effect on cancer cell viability | no significant difference was observed on the cytotoxicity results; also recorded: not highly toxic to normal cells | approximately 27% | Approximately 5.16% |  |
| epiblechnic acid [EBA] | did not significantly reduce the cell viability |  | no significant effect on cancer cell viability |  | roughly 51% | approximately 1.73% | no significant difference was observed on the cytotoxicity results |
